# Marks after values point to notes of the source that are not given here.
# Test system: OLETF rats
# Assay: Systolic blood pressure of OLETF rats fed CLA-supplemented diet (indirect tail cuff method)
# Assay type: in vivo, rat
# Conditions: male OLETF rats; for Systolic blood pressure compared with control group (in words): 0.5% in diet, up to 3 weeks, control = high linoleic safflower oil; for Blood pressure, initial value / Blood pressure, 1 Week / Blood pressure, 2 Weeks / Blood pressure, 3 Weeks: systolic; for Blood pressure, initial value: baseline before feeding the diet supplemented with 0.5% of the substance; for Blood pressure, 1 Week / Blood pressure, 2 Weeks / Blood pressure, 3 Weeks: diet supplemented with 0.5% of the substance; for Blood pressure, 1 Week: 1 week of feeding; for Blood pressure, 2 Weeks: 2 weeks of feeding; for Blood pressure, 3 Weeks: 3 weeks of feeding
# Description: Male OLETF rats (7 weeks old), an animal model of non-insulin dependent diabetes mellitus, were assigned to three groups that were fed ad libitum with a semisynthetic diet (AIN-76) supplemented with 0.5% high linoleic safflower oil (Rinoru Oil Mills Co., Ltd.; control group), or a semisynthetic diet supplemented with 0.5% 9cis,11trans-CLA, and a semisynthetic diet supplemented with 0.5% 10trans,12cis-CLA for three weeks. […]
# It has been found from the above-described results that systolic blood pressure is lowered in rats fed with the 10trans, 12cis-CLA.
Compound,Systolic blood pressure compared with control group (in words),"Systolic blood pressure compared with control group (in words) (listed as 10trans,12cis-CLA)","Blood pressure, initial value","Blood pressure, 1 Week","Blood pressure, 2 Weeks","Blood pressure, 3 Weeks"
conjugated linoleic acid [CLA],tends to lower,,,,,
"CCCCC/C=C\C=C\CCCCCCCCC(=O)O [10trans, 12cis-CLA, 10trans,12cis-CLA]",lowered,significantly suppressed,106 ± 4 mmHg,125 ± 6 mmHg,128 ± 5^b mmHg,132 ± 3^b mmHg
"CCCCCC/C=C/C=C\CCCCCCCC(=O)O [9cis, 11trans-CLA, 9cis,11trans-CLA]",,,103 ± 3 mmHg,131 ± 3 mmHg,148 ± 4^a mmHg,154 ± 4^a mmHg

# — patent publication US20050002991A1, “Prophylactic agent of hypertension containing a conjugated fatty acid as an effective ingredient and the use thereof” (RINORU OIL MILLS CO., LTD., priority 2003, published 2005)
